# Measured values from patent publication US9301951B2 (Ardelyx, Inc., priority 2010, dated 2016).
# Key:
# rat NaP2b (SLC34A2) = target: T1, rat NaP2b (SLC34A2) (Rattus norvegicus, UniProt Q9JJ09); assay: Inhibition of NaP2b-mediated Pi (33P) uptake in transfected HEK293 cells, rat NaP2b; assay type: cell-based; settings: HEK293 cells transfected with rat NaP2b, 100 uM phosphate, 0.1 nM to 30 uM, read-out: pIC50 range for rat Nap2b (converted)
# T1 construct: host or cells: HEK293
# T1 sequence (Q9JJ09 1-695): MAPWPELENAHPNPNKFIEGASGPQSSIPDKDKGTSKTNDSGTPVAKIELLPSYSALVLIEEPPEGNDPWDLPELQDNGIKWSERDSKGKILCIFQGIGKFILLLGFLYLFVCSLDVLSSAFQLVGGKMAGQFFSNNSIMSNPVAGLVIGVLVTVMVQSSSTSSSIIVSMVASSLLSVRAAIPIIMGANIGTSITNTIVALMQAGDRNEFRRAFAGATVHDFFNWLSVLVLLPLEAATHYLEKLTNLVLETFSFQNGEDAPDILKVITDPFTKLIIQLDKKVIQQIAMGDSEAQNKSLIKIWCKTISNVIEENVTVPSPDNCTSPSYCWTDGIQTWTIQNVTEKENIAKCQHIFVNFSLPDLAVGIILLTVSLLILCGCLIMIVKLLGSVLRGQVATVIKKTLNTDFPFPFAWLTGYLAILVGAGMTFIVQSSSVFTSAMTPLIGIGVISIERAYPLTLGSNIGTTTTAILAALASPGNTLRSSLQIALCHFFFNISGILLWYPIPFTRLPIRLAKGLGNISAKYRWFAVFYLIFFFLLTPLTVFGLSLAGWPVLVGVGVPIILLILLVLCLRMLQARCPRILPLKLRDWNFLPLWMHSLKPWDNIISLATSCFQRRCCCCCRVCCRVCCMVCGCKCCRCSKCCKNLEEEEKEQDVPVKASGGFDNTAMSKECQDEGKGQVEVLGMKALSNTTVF
# Procedure, shortened: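 HEK293 cells transiently transfected with rat NaP2b; 33P-phosphate uptake measured in sodium or choline buffer (100 uM KH2PO4, PiT-silencing agent, pH 7.4) with compound at twelve concentrations, 0.1 nM–30 uM, in duplicate. Lysed cells counted by scintillation; pIC50 derived from concentration-response.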
# Sprague-Dawley rats = assay: In vivo co-dosing in chow (urine P out / P consumed); settings: feed or water; rat; drug in chow, nominal 100 mg/kg/day (mean dose per line in table); urine 24-96 h; read-out: Mean % inhibition Urine Pout/P consumed
# Source text: Male, 7-week-old Sprague-Dawley rats (Charles-River laboratories international, Hollister, Calif.) were allowed to acclimate for a minimum of 3 days. The experiment was initiated by switching animals to a synthetic diet (0.6% phosphorus and 0.6% calcium, Harlan Teklad TD.84122) for four days. After this time, the animals were placed into metabolic cages for daily monitoring of food and water consumption, as well as urine and fecal collections. Test compounds were incorporated into the powdered diet listed above containing 3% chocolate flavoring (w/w, BioServ #7345) at 1.3 mg test compound per gram of diet to achieve an average daily nominal dose of 100 mg/kg/day. The actual dose received by each animal was later determined by measuring prepared diet consumption and body weight. Urine samples were collected in three daily periods from 24-48, 48-72, and 72-96 hours of drug dosing. […] Phosphorus levels in the urine were determined by anion exchange chromatography using a Dionex ICS-3000 ion chromatography system. […] Elution of urine phosphate ions was monitored via conductivity detector and reported as ppm relative to a standard ion solution containing phosphate. Daily urinary P output relative to the P consumed in the prepared diet for each animal was calculated. […] The differences between the means of control and treated groups were evaluated by t tests. […]
# [1] = Stability of compounds in simulated gastric fluid (SGF); assay type: in vitro ADME; settings: simulated gastric fluid (USP, 3 mg/mL pepsin), 1-20 μM, incubation time 6 hr, relative to t=0
# Method: (§1) Test compounds were incubated at 1-20 μM in simulated gastric fluid (SGF; standard USP solution with 3 mg/mL pepsin) or simulated intestinal fluid (SIF; standard USP solution with 3 mg/mL pancreatin) for 3 hr or 6 hr. HPLC-UV or HPLC-MS were used to determine test compound levels using peak area %. Results (Table 14) were reported as the percentage of test compound remaining after incubation in a given condition relative to test compound present at t=0 in the same condition.
# [2] = Stability of compounds in simulated intestinal fluid (SIF); assay type: in vitro ADME; settings: simulated intestinal fluid (USP, 3 mg/mL pancreatin), 1-20 μM, incubation time 6 hr, relative to t=0
# Method: as §1
# [3] = test system: 5/6 nephrectomy (5/6Nx) rat model of CKD; assay: In vivo evaluation in CKD rats (5/6 nephrectomy, 0.9% P diet, calcitriol); settings: study 1, drug in chow, 2 weeks
# Method: To assess the ability of selected example compounds to impact the progression of chronic kidney disease (CKD), 5/6 nephrectomy (5/6Nx) rat model of CKD was used. […] 5/6 Nx rats were obtained from Charles River Labs (CRL, Hollister, Calif.). Upon arrival, the surgeries and extent of kidney damage in the animals were assessed by measuring serum creatinine, P, Ca, and BUN. Based on this analysis, rats with inconsistent kidney function were removed from the study and the remainder of the cohort was divided in to evenly stratified test groups. The remaining animals were then placed on the same synthetic diet used in the drug-in-chow studies (Example 350), except the P levels were adjusted to 0.9% P. Drugs are blended into this chow to achieve the required dosing rate. At this time, rats were also started on an activated Vitamin D regimen in which they were injected intraperitoneally with calcitriol at 80 ng/kg three times a week. Once a week, serum was collected via retro orbital bleeding for analysis of serum P and creatinine utilizing an ACE ALERA blood chemistry analyzer. […] Unless otherwise indicated, the data shown is from the serum collected at 2 weeks after initiation of the treatment regimen. In addition, for study #3, during the third week of the study, the animals were placed in metabolic cages for two days, and urine collected for the final 24 hours.
SMILES,IC50 (rat NaP2b (SLC34A2)) [µM],inhibition in vivo at 100 mg/kg/day (Sprague-Dawley rats) [%],"% remaining, SGF [1] [%]","% remaining, SIF [2] [%]",Ser CRE [3] [mg/dL],Ser P [3] [mg/dL],"FGF23, pg/mL ([3]; serum)"
"O=C(O)CCSCc1cccc(C(=O)Nc2ccc(N3CCCCC3)cc2-c2cc(C(=O)NCc3cccc(C(F)(F)F)c3)ccn2)c1 [Example 1.1, 3-(3-((2-(4-((3-(trifluoromethyl)benzyl)carbamoyl)pyridin-2-yl)-4-(piperidin-1-yl)phenyl)carbamoyl)-benzylthio)propanoic acid]",1 to 7.94,–,–,–,–,–,–
"CCN(CC)c1ccc(NC(=O)c2cccc(C(=O)N(C)CCN3CCOCC3)c2)c(-c2cc(C(=O)NCc3cccc(C(F)(F)F)c3)ccn2)c1 [Example 25, N1-(4-(Diethylamino)-2-(4-((3-(trifluoromethyl)benzyl)carbamoyl)pyridin-2-yl)phenyl)-N3-methyl-N3-(2-morpholinoethyl)isophthalamide]",< 1,10 to 30,>80,80,1.3,10,"~10,000 pg/mL"
